Drawing on US20070265270A1, “Cinnoline derivatives as phosphodiesterase 10 inhibitors” (priority 2006, published 2007), this text covers IC50 for 46 molecules.

Structures are written as SMILES. pIC50: −log10 of the molar value.

This experiment addresses T1, mPDE10A7 (Mus musculus, UniProt Q8CA95).
T1 sequence (Q8CA95 446-763 limits assumed): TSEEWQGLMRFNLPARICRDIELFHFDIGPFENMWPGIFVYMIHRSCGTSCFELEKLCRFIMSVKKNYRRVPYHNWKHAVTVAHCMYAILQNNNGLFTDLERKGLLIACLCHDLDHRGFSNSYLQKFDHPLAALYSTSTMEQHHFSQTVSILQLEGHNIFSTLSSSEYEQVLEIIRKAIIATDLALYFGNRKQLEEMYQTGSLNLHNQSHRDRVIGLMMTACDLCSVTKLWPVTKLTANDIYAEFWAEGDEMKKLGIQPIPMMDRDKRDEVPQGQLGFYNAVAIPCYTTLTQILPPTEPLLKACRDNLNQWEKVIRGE
Briefly: mPDE10A7 enzyme inhibition (IMAP fluorescence polarization). In kind it is biochemical. Conditions: fluorescein labeled cAMP or cGMP substrate. The procedure:
Enzyme Activity: To analyze the enzyme activity, 5 μL of serial diluted mPDE10A7 containing lysate were incubated with equal volumes of diluted (100-fold) fluorescein labeled cAMP or cGMP for 30 minutes in MDC HE 96-well assay plates at room temperature. Both the enzyme and the substrates were diluted in the following assay buffer: Tris/HCl (pH 8.0) 50 mM, MgCl2 5 mM, 2-mercaptoethanol 4 mM, BSA 0.33 mg/mL. After incubation, the reaction was stopped by adding 20 μL of diluted (400-fold) binding reagents and was incubated for an hour at room temperature. The plates were counted in an Analyst GT (Molecular Devices) for fluorescence polarization. An IMAP Assay kit (Molecular Device) was used to assess enzyme properties of mPDE10A7. Data were analyzed with SoftMax Pro.
Enzyme Inhibition: To check the inhibition profile, 10 μL of serial diluted compounds were incubated with 30 μl of diluted PDE enzymes in a 96-well polystyrene assay plate for 30 minutes at room temperature. After incubation, 5 μL of the compound-enzyme mixture were aliquoted into a MDC HE black plate, mixed with 5 μl of 100-fold diluted fluorescein labeled substrates (cAMP or cGMP), and incubated for 30 minutes at room temperature. The reaction was stopped by adding 20 μL of diluted binding reagents and counted in an Analyst GT for fluorescence polarization. The data were analyzed with SoftMax Pro.
A general note: In fluorescence polarisation assays a small probe gives low polarisation when free and higher when bound to something large.

For the setting “Table 3”, `CCN1CCN(c2cccc3c2cnn3-c2cnnc3cc(OC)c(OC)cc23)CC1` [Cpd 48] showed a pIC50 of 7.54.

With `COc1cc2nncc(N3CCNC(c4cc(OCc5ccccc5)cc(OCc5ccccc5)c4)C3)c2cc1OC` (racemic) [Cpd 118], under “Table 3”, the pIC50 is 6.80. Against the preceding molecule, the pIC50 is 0.74 log units lower.

As for `COc1cc2nncc(N3CCOC(c4ccc(OC(F)(F)F)cc4)C3)c2cc1OC` (racemic) [Cpd 63], the pIC50 (Table 3) is 7.53.

Molecule `COc1cc2nncc(-n3ncc4c(N5CCN(C(C)=O)CC5)cccc43)c2cc1OC` [Cpd 106] showed a pIC50 (Table 3) of 7.80.

Where the note is “Table 4”, `COc1ccc(C2CN(c3cnnc4cc(O)c(OC)cc34)CCO2)cc1` (racemic) [compound 127] showed a pIC50 of 6.84.

In the case of `COc1cc2nncc(N3CCO[C@@H](c4ccc(C)cc4F)C3)c2cc1OC` [Cpd 110], under “Table 3”, the pIC50 is 8.54.

On to `COc1ccc(CNC2CCN(c3cnnc4cc(OC)c(OC)cc34)CC2)cc1` [Cpd 78, 1-(6,7-dimethoxycinnolin-4-yl)-N-(4-methoxybenzyl)piperidin-4-amine], for which the pIC50 (Table 3) was 5.86.

`COc1cc2nncc(N3CCC(c4ccccc4)C3)c2cc1OC` (racemic) [Cpd 12, 6,7-dimethoxy-4-(3-phenylpyrrolidin-1-yl)cinnoline] showed a pIC50 (Table 3) of 6.58. This pIC50 lies 0.72 log units higher than the previous one.

Molecule `COc1cc2nncc(N3CCCC(Oc4ccccc4)C3)c2cc1OC` (racemic) [Cpd 37] had a negative logarithm of the IC50 (pIC50) (Table 3) of 6.95.

`COc1cc(OC)cc(C(=O)NC2CCCN(c3cnnc4cc(OC)c(OC)cc34)C2)c1` (racemic) [Cpd 121] had a pIC50 (Table 3) of 7.79.

With `COc1cc2nncc(N3CCNC(c4cccs4)C3)c2cc1OC` (racemic) [Cpd 93], the pIC50 (Table 3) was 8.11.

For the molecule `COc1cc2nncc(N3CCC(N4CCCC4=O)CC3)c2cc1OC` [Cpd 85], the pIC50 (Table 3) was 6.54. Compared with the last molecule, the pIC50 is 1.57 log units lower.

With `COc1cc2nncc(-n3ncc4c(Br)cccc43)c2cc1OC` [Cpd 113, 4-(4-bromo-1H-indazol-1-yl)-6,7-dimethoxycinnoline], for the setting “Table 3”, the pIC50 was 6.82.

For the molecule `COc1cc2nncc(N3CCCC(C(=O)N4CCCCC4)C3)c2cc1OC` (racemic) [Cpd 39], the pIC50 (Table 3) was 6.42. This pIC50 is 0.40 log units lower than that of the molecule before.

As to `COc1ccc2cc(C3CN(c4cnnc5cc(OC)c(OC)cc45)CCN3)ccc2c1` (racemic) [Cpd 86], where the note is “Table 3”, the pIC50 was 8.88.

In the case of `COc1cc2nncc(N3CCCC(C4CCCCC4)C3)c2cc1OC` (racemic) [Cpd 104], the pIC50 (Table 3) is 6.58.

On to `COc1ccc(N2CCC=C(c3cnnc4cc(OC)c(OC)cc34)C2)cc1` [Cpd 101], for which the negative logarithm of the IC50 (pIC50) (Table 3) is 8.19.

`COc1cc2nncc(-c3ccc4c(c3)OCCN4C)c2cc1OC` [Cpd 8, 7-(6,7-dimethoxycinnolin-4-yl)-4-methyl-3,4-dihydro-2H-1,4-benzoxazine] showed a pIC50 (Table 3) of 7.64.

`COc1ccc(C2(O)CCCN(c3cnnc4cc(OC)c(OC)cc34)C2)cc1` (stereo not shown) [Cpd 64] had a pIC50 (Table 3) of 7.72.

`COc1cc2nncc(-c3ccc4c(c3)N(C)C(=O)C4(C)C)c2cc1OC` [Cpd 76] had a negative-log IC50 (pIC50) (Table 3) of 7.73. This pIC50 and that of the molecule before are within 0.2 log units of each other.

Molecule `COc1cc2nncc(N3CCCC(N(C)C(=O)c4ccccc4)C3)c2cc1OC` (stereo not shown) [Cpd 107] gave a pIC50 (Table 3) of 7.23.

Turning to `COc1cc2nncc(-n3nc(C(=O)NC4CC4)c4ccccc43)c2cc1OC` [Cpd 3, N-cyclopropyl-1-(6,7-dimethoxycinnolin-4-yl)-1H-indazole-3-carboxamide hydroformate], where the note is “Table 3”, the pIC50 was 6.85.

Take `COc1cc2nncc(N3CCNC(c4ccc(N(C)C)cc4)C3)c2cc1OC` (racemic) [Cpd 94]: under “Table 3”, the pIC50 was 8.80.

The molecule `COc1cc2nncc(N3CCCC(C(=O)N4CCCC4)C3)c2cc1OC` (racemic) [Cpd 32, 6,7-Dimethoxy-4-[3-(pyrrolidin-1-ylcarbonyl)piperidin-1-yl]cinnoline] had a pIC50 (Table 3) of 6.40. Compared with the last molecule, the pIC50 is 2.40 log units lower.

With `COc1cc2nncc(-n3ncc4ccc(N5CCOCC5)cc43)c2cc1OC` [Cpd 21, 6,7-dimethoxy-4-(6-morpholin-4-yl-1H-indazol-1-yl)cinnoline], the negative logarithm of the IC50 (pIC50) (Table 3) is 6.26.

In the case of `COc1cc2nncc(N3CCOC(c4ccc5c(c4)CCO5)C3)c2cc1OC` (racemic) [Cpd 38], the pIC50 (Table 3) was 8.19.

`COc1ccc(C2CN(c3cnnc4cc(OC)c(OC)cc34)CC(=O)N2C)cc1` (racemic) [Cpd 65] showed a pIC50 (Table 3) of 7.34.

`CCN(C)c1cccc2c1cnn2-c1cnnc2cc(OC)c(OC)cc12` [Cpd 72] had a pIC50 (Table 3) of 7.36.

`COc1cc2nncc(N3CCCC(CN4CCCC4=O)C3)c2cc1OC` (racemic) [Cpd 62, 1-{[1-(6,7-dimethoxycinnolin-4-yl)piperidin-3-yl]methyl}pyrrolidin-2-one] showed a pIC50 (Table 3) of 6.47.

In turn, `COc1cc2nncc(N3CCCC(NC(=O)c4ccccc4F)C3)c2cc1OC` (racemic) [Cpd 102] had a pIC50 (Table 3) of 7.45. This pIC50 is 0.98 log units higher than that of the molecule before.

As for `COCCOc1ccc2cnn(-c3cnnc4cc(OC)c(OC)cc34)c2c1` [Cpd 19, 6,7-Dimethoxy-4-[6-(2-methoxyethoxy)-1H-indazol-1-yl]cinnoline], the pIC50 (Table 3) was 6.85.

With `COc1cc2nncc(N3CC(c4ccc(Cl)cc4)OCC3=O)c2cc1OC` (racemic) [Cpd 40], the pIC50 (Table 3) was 6.37.

In the case of `COc1cc2nncc(N3CCOC(c4ccccc4C)C3)c2cc1OC` (racemic) [Cpd 96], the pIC50 (Table 3) is 7.85.

With `COc1cc2nncc(N3CCC[C@@H](c4ccccc4F)C3)c2cc1OC` [Cpd 67], where the note is “Table 3”, the pIC50 is 8.15.

For `COc1ccc(CC2CCN(c3cnnc4cc(OC)c(OC)cc34)C2)cc1` (racemic) [Cpd 98], the pIC50 (Table 3) was 7.58. Compared with the last molecule, the pIC50 is 0.57 log units lower.

Turning to `COc1cc2nncc(-c3nc4ccccc4o3)c2cc1OC` [Cpd 1, 4-(1,3-benzoxazol-2-yl)-6,7-dimethoxycinnoline hydroformate], the pIC50 (Table 3) was 6.66.

Where the note is “Table 3”, `COc1cc2nncc(N3CCCC(n4ccccc4=O)C3)c2cc1OC` (stereo not shown) [Cpd 51] gave a pIC50 of 6.82.

In turn, `COc1cc2nncc(N3CCOC(c4ccc(C)cc4F)C3)c2cc1OC` (racemic) [Cpd 88] gave a pIC50 (Table 3) of 7.24.

As to `COc1cc2nncc(N3CCCC(c4nc(C)no4)C3)c2cc1OC` (stereo not shown) [Cpd 56], the pIC50 (Table 3) is 6.72.

Take `CC[C@@H]1CN(c2cnnc3cc(OC)c(OC)cc23)C[C@@H](c2ccc(OC)cc2)O1` (racemic) [Cpd 100]: the pIC50 (Table 3) is 8.45.

Under “Table 3”, `COc1cc2nncc(-n3ncc4c(N5CCN(CC6CC6)CC5)cccc43)c2cc1OC` [Cpd 50, 4-{4-[4-(cyclopropylmethyl)piperazin-1-yl]-1H-indazol-1-yl}-6,7-dimethoxycinnoline] had a pIC50 of 7.20.

Consider `COc1cc2nncc(N3CCNC(c4cccc5ccccc45)C3)c2cc1OC` (racemic) [Cpd 103], for which, under “Table 3”, the pIC50 was 7.92.

On to `COc1ccc2cc([C@@H]3CN(c4cnnc5cc(OC)c(OC)cc45)CCN3)ccc2c1` [Cpd 111], for which, for the setting “Table 3”, the pIC50 was 7.99.

The molecule `COc1cc2nncc(-n3ncc4c(N5CCCC5)cccc43)c2cc1OC` [Cpd 73, 6,7-dimethoxy-4-(4-pyrrolidin-1-yl-1H-indazol-1-yl)cinnoline] showed a pIC50 (Table 3) of 7.02.

Where the note is “Table 3”, `COc1cc2nncc(N3CCOC(c4ccc(O)cc4)C3)c2cc1OC` (racemic) [Cpd 74] gave a negative logarithm of the IC50 (pIC50) of 8.42.

In the case of `COc1cccc(C2CN(c3cnnc4cc(OC)c(OC)cc34)C(=O)CO2)c1` (racemic) [Cpd 52, 4-(6,7-dimethoxycinnolin-4-yl)-6-(3-methoxyphenyl)morpholin-3-one], under “Table 3”, the pIC50 was 6.51.

For orientation: pIC50 means the negative decadic logarithm of the IC50, by convention in mol/L. Read a high pIC50 as a small IC50.
